Experimental findings from PMC7690883, “Pseudoceratonic Acid and Moloka’iamine Derivatives from the Red Sea Verongiid Sponge Pseudoceratina arabica” (Marine Drugs, 2020) are described below.

Values after ≈ are worked out from the molar mass of the structure shown. Like-named read-outs stand apart in the source and are kept apart here.

Holding throughout (type): cell-based
The test system of one experiment is E. coli. The experiment in a line: MIC determination (dilution method), E. coli. The settings on record: Escherichia coli; Mueller Hinton Broth, 48 h at 37 °C. The procedure: (§1) The minimal inhibitory concentrations (MICs) of the compounds were evaluated using a […] method (Table 3).
(§2) The MIC values of the compounds were determined of using a macrodilution method. Briefly, the compounds were dissolved in MeOH at a final concentration of 2000 µg/mL. Ciprofloxacin and ketoconazole were dissolved in H2O at final concentrations of 100 µg/mL. Syringe filters (0.2 µm) were used for sterilization of all stock solutions. Two-fold serial dilutions of the solutions were used in Mueller Hinton Broth (MHB) to give concentrations of 1.0–1000 µg/mL (for the compounds) and 0.125–64 µg/mL (for ciprofloxacin and ketoconazole). 500 µL from the 10^6 CFU/mL microbial suspensions were added in sterile tubes to give inoculua of 5 × 10^5 CFU/mL. Further, 100 µL of the stock solutions of the compounds and antibiotics were added into the tubes. Control tubes with test microorganisms only and MeOH were prepared. […] The tubes were kept for 48 h at 37 °C.

In the next experiment the test system is S. aureus (ATCC 25923). Nature of the experiment: Disc diffusion assay, S. aureus. The note with it: Staphylococcus aureus. On the procedure:
(§3) The antimicrobial evaluation of the compounds against E. coli, S. aureus and C. albicans at 50 µg/disc was carried out using disc diffusion assay. […] The other compounds were weakly active against the three pathogens with inhibition zones of 6–9 mm (Table 3).
(§4) Using S. aureus (ATCC 25923), E. coli (ATCC 25922), and C. albicans (ATCC 14053), a disc diffusion assay was carried out to evaluate the antimicrobial effects of 1–6 at 50 µg/disc as reported before. Ketoconazole (50 µg/disc) and ciprofloxacin (5.0 µg/disc) served as antibiotics controls.
A general note: In agar diffusion tests the substance spreads into inoculated agar from a disc or well.

Another experiment relates to S. aureus. Nature of the experiment: MIC determination (dilution method), S. aureus. The settings on record: Staphylococcus aureus; Mueller Hinton Broth, 48 h at 37 °C. On the procedure:
as §1, §2

The subject of a further experiment is E. coli (ATCC 25922). Nature of the experiment: Disc diffusion assay, E. coli. The note with it: Escherichia coli. On the procedure: as §3, §4
The next experiment deals with C. albicans. The experiment in a line: MIC determination (dilution method), C. albicans. The note with it: Candida albicans, read-out: C. albicans MIC. On the procedure:
as §1, §2

In experiment [1] the test system is NHDF (normal human dermal fibroblasts). Nature of the experiment: MTT cytotoxicity assay, NHDF. The note with it: 72 h. The procedure:
(§5) The cytotoxic and antiproliferative effects of the compounds against MDA-MB-231, HeLa, and HCT 116 cell lines were evaluated using MTT (3-(4,5-Dimethylthiazol-2-yl)-2,5-diphenyltetrazolium bromide) assay (Table 4).
(§6) The cell lines MDA-MB-231 (triple-negative breast cancer, ATCC HTB-26), HeLa (human cervical carcinoma, ATCC CCL-2), HCT 116 (colorectal carcinoma, ATCC CCL-247) were used for the evaluation of the cytotoxicity of the compounds. In addition, NHDF (normal human dermal fibroblasts) cells were used to evaluate the selectivity of compound 2 against the cancerous cell lines. DMEM, with Pen–Strep. (1%) and FBS (10%), was used for culturing MDA-MB-231 cells, while RPMI 1640, with Pen–Strep. (1%) and FBS (10%), was used for culturing HCT 116 and HeLa cells. Finally, NHDF cells were cultured in fibroblast basal medium complemented with Pen–Strep. (1% v/v), heat-inactivated fetal bovine serum (FBS) (2% v/v), insulin (5 µg/mL) and basic fibroblast growth factor (1 ng/mL). Culture of all cells was completed at 37 °C with 5% CO2 and 95% humidity.
The cytotoxic effects of the compounds were evaluated using MTT assay as reported earlier. […] After 72 h incubation of the compounds with the cells (10,000 cells/well for HCT 116 and NHDF, and 12,000 cells/well for HeLa and MDA-MB-231), the cells’ viability was calculated at 490 nm as reported before. […]
(In general: Tetrazolium dyes change colour on reduction, which living cells bring about.)

The subject of experiment [2] is MDA-MB-231 (triple-negative breast cancer). Nature of the experiment: MTT cytotoxicity assay, MDA-MB-231. The note with it: Homo sapiens, read-out: IC50 MDA-MB-231. The procedure:
as §5, §6
(§7) The cytotoxic effects of the compounds were evaluated using MTT assay as reported earlier. Briefly, all cells kept overnight in 5% CO2/air and at 37 °C. Tested compounds were added to the upper row of a 96-well plate followed by 1:4 (v/v) serial dilutions. After 72 h incubation of the compounds with the cells (10,000 cells/well for HCT 116 and NHDF, and 12,000 cells/well for HeLa and MDA-MB-231), the cells’ viability was calculated at 490 nm as reported before. 5-Fluorouracil (5-FU) and DMSO were used as positive and negative controls. The IC50 values reported in […] represent the mean of three separate experiments. A concentration of 10 µM was set as a cutoff value in this assay.

The next experiment relates to C. albicans (ATCC 14053). Nature of the experiment: Disc diffusion assay, C. albicans. The settings on record: Candida albicans. On the procedure: as §3, §4
Experiment [3] relates to HeLa (human cervical carcinoma). Nature of the experiment: MTT cytotoxicity assay, HeLa. The settings on record: 72 h, read-out: IC50 HeLa. The procedure:
as §5, §6, §7

The subject of experiment [4] is HCT 116 (colorectal carcinoma). Nature of the experiment: MTT cytotoxicity assay, HCT 116. The settings on record: Homo sapiens, read-out: IC50 HCT 116. On the procedure:
as §5, §6, §7

The mark [5] stands for this setting: Mueller Hinton Broth, 48 h at 37 °C.
Setting [6] is: MDA-MB-231, MTT, 72 h, cutoff 10 µM.
[7] abbreviates: ATCC14053, disc diffusion, 50 µg/disc (compounds and ketoconazole), read-out: C. albicans Inhibition Zone.
Where [8] appears, read: Homo sapiens, HeLa, MTT, cutoff 10 µM.
The mark [9] stands for this setting: HCT-116, MTT, 72 h, cutoff 10 µM.
Where [10] appears, read: ATCC25923, read-out: S. aureus Inhibition Zone.
Setting [11] is: ATCC14053, read-out: C. albicans Inhibition Zone.
The mark [12] stands for this setting: ATCC25922, read-out: E. coli Inhibition Zone.

`O=C(O)c1cn(C2CC2)c2cc(N3CCNCC3)c(F)cc2c1=O` [Ciprofloxacin, reference compound]: the MIC against E. coli worked out at 0.25 µg/mL (≈ 0.754 µM); in the experiment with S. aureus, 0.5 µg/mL (≈ 1.51 µM). For the same molecule, the zone of inhibition at 5 µg/disc in the experiment on S. aureus (ATCC 25923) (ATCC25923, disc diffusion, ciprofloxacin 5.0 µg/disc) was 22 mm; in the experiment with E. coli (ATCC 25922) (ATCC25922, disc diffusion, ciprofloxacin 5.0 µg/disc) it was 30 mm.
As to `N#CC(=O)NCCCOc1c(Br)cc(CCNC=C2C(=O)C=CC2=O)cc1Br` [Compound 2, ceratinine N], the minimal inhibitory concentration (MIC) in the experiment with C. albicans (setting [5]) worked out at 16 µg/mL (≈ 31.3 µM); against E. coli it was 125 µg/mL (≈ 245 µM); against S. aureus it was 125 µg/mL (≈ 245 µM). Moreover, the zone of inhibition at 50 µg/disc was determined as 7 mm in the experiment on S. aureus (ATCC 25923) (ATCC25923, disc diffusion, 50 µg/disc, read-out: S. aureus Inhibition Zone); 16 mm in the experiment on C. albicans (ATCC 14053) (setting [7]); 6 mm in the experiment with E. coli (ATCC 25922) (ATCC25922, disc diffusion, 50 µg/disc, read-out: E. coli Inhibition Zone). In addition, the 50% inhibitory concentration (IC50) in experiment [1] came to 3.5 ± 0.3 µM; in experiment [2] (setting [6]), 3.1 ± 0.29 µM; in [3] (setting [8]), 2.1 µM; in experiment [3] (MTT, cutoff 10 µM), 2.3 ± 0.16 µM; in [4] (setting [9]) it was 2.9 ± 0.18 µM.
As for `CCOC(=O)NCCCOc1c(Br)cc(CCN)cc1Br` [Compound 3, ceratinine O], the minimum inhibitory concentration (MIC) in the experiment with C. albicans (48 h) was 64 µg/mL (≈ 151 µM); against E. coli, 125 µg/mL (≈ 295 µM); with S. aureus, 64 µg/mL (≈ 151 µM). In addition, the zone of inhibition at 50 µg/disc is 8 mm in the experiment with S. aureus (ATCC 25923) (setting [10]), 9 mm with C. albicans (ATCC 14053) (setting [11]) and 6 mm in the experiment on E. coli (ATCC 25922) (setting [12]). For the same molecule, the half-maximal inhibitory concentration (IC50) was no less than 10 µM in experiment [2] (MDA-MB-231, 72 h); no less than 10 µM in experiment [3] (Homo sapiens, HeLa); 9.5 ± 0.85 µM in experiment [4] (HCT-116, 72 h).
With `NCCCOc1c(Br)cc(CCN)cc1Br` [Compound 4, moloka’iamine], the minimal inhibitory concentration (MIC) in the experiment with C. albicans (48 h), against E. coli and with S. aureus was 125 µg/mL (≈ 355 µM) throughout. Further, the figures for the zone of inhibition at 50 µg/disc in the experiment with S. aureus (ATCC 25923) (setting [10]), in the experiment on C. albicans (ATCC 14053) (setting [11]) and with E. coli (ATCC 25922) (setting [12]) were 7 mm, 6 mm and 6 mm, respectively. Besides, the IC50 in experiment [2] (MDA-MB-231, 72 h) is no less than 10 µM; in experiment [3] (Homo sapiens, HeLa), no less than 10 µM; in experiment [4] (HCT-116, 72 h), no less than 10 µM.
Turning to `NCCCOc1c(Br)cc(C(O)CN)cc1Br` (centres unmarked) [Compound 5, hydroxymoloka’iamine], the IC50 in [2] (setting [6]), in experiment [3] (setting [8]) and in experiment [4] (setting [9]) was no less than 10 µM in each case.
On to `O=c1[nH]cc(F)c(=O)[nH]1` [Compound 5-FU, 5-Fluorouracil, reference compound], for which the half-maximal inhibitory concentration (IC50) was determined as 13 ± 0.3 µM in experiment [2] (setting [6]), 12.3 ± 0.25 µM in experiment [3] (setting [8]) and 4.6 ± 0.23 µM in experiment [4] (setting [9]).
For the molecule `N#CC(=O)NCCCOc1c(Br)cc(CCN)cc1Br` [Compound 6, ceratinamine], the minimum inhibitory concentration (MIC) in the experiment with C. albicans (48 h) stood at 32 µg/mL (≈ 79 µM); against E. coli it was 125 µg/mL (≈ 309 µM); against S. aureus it was 64 µg/mL (≈ 158 µM). In addition, the figures for the zone of inhibition at 50 µg/disc in the experiment with S. aureus (ATCC 25923) (setting [10]), with C. albicans (ATCC 14053) (setting [11]) and in the experiment on E. coli (ATCC 25922) (setting [12]) were 9 mm, 12 mm and 7 mm, respectively. The 50% inhibitory concentration (IC50) was no less than 10 µM in [2] (MDA-MB-231, 72 h); no less than 10 µM in experiment [3] (Homo sapiens, HeLa); no less than 10 µM in experiment [4] (HCT-116, 72 h).
Regarding `CC(=O)N1CCN(c2ccc(OCC3COC(Cn4ccnc4)(c4ccc(Cl)cc4Cl)O3)cc2)CC1` (centres unmarked) [Ketoconazole, reference compound], in the experiment on C. albicans (setting [5]), the minimal inhibitory concentration (MIC) was determined as 0.5 µg/mL (≈ 0.941 µM). In addition, the zone of inhibition at 50 µg/disc in the experiment with C. albicans (ATCC 14053) (setting [7]) was found to be 30 mm.

Usually MIC stands for the lowest concentration that inhibits growth of the organism. As a reminder, the IC50 is the point on the concentration scale where inhibition reaches its midpoint.
